Where two headings read alike, the source gives them in different places.
Columns and labels:
[1] = set-up: species or system humans; conditions: for ALfemale (allowable limit): adult females, 58 kg body weight; for ALmale (allowable limit): adult males, 70 kg body weight
Description: Toxicological risk assessment of five previously characterized byproducts, per Sayoun, J; Crepet A; Gouanve F; Keromnes L; Espuche E. 2017. “Diffusion mechanism of byproducts resulting from the peroxide crosslinking of polyethylene.” J. Appl. Polym. Sci. 44525. doi: 10.1002/APP.44525, was carried out following ISO 10993-17:2002. Quantification was based on the maximum amount of chemical exposures from the anticipated maximum number of implants a patient may receive (in this case, 4 implants). An exhaustive literature search for toxicity data was conducted specific to each chemical of interest. This was accomplished via ToxPlanet (a federated search engine that extracts the content from 500+ websites). Biocompatibility endpoints were determined based on ISO 10993-1:2018 and recent United States Food and Drug Administration (US Food and Drug Administration 2016a. “Use of International Standard ISO-10993, ‘Biological evaluation of medical devices—Part 1: Evaluation and testing within a risk management process’: Guidance for Industry and Food and Drug Administration Staff.” Center for Devices and Radiological Health (CDRH), 68p). These endpoints include chronic toxicity, reproductive and developmental toxicity, genotoxicity, carcinogenicity, and sensitization.
The in silico methods utilized an expert-rule-based program (Toxtree version 3.1.0; Ideaconsult Ltd., 2018) and the statistics-based program VEGA version 1.2.8 and Benfenati, E; Manganaro, A; Gini, G. 2013. “VEGA-QSAR: AI inside a platform for predictive toxicology.” In CEUR Workshop Proceedings, Volume 1107: Proceedings of The Second Workshop on Popularize Artificial Intelligence, (PAI 2013), Turin, Italy), consistent with the International Council for Harmonisation of Technical Requirements for Pharmaceuticals for Human Use (ICH) and US FDA guidelines for the assessment of DNA reactive impurities in pharmaceuticals (M7 guidelines; International Council for Harmonisation of Technical Requirements for Pharmaceuticals for Human Use (ICH). 2017a. “ICH Harmonised Guideline: Assessment and Control of DNA Reactive (Mutagenic) Impurities in Pharmaceuticals to Limit Potential Carcinogenic Risk M7(R1) (Current Step 4 Version); US Food and Drug Administration (US FDA 2018. “Guidance for Industry: M7(R1) Assessment and Control of DNA Reactive (Mutagenic) Impurities in Pharmaceuticals to Limit Potential Carcinogenic Risk.” Center for Drug Evaluation and Research (CDER), Center for Biologics Evaluation and Research (CBER)).
The allowable limit (AL) was calculated using the no-observed-adverse-effect level (NOAEL) limits ascertained from the literature search and in silico methods described above. The NOAELs were then adjusted by the average body weight (BW) for adult males (70 kg) and adult females (58 kg). Following the recommendations of ISO 10993-17 and ICH Q3C(R7) (International Organization for Standardization (ISO). 2002. “ISO 10993-17: Biological Evaluation of Medical Devices—Part 17: Establishment of Allowable Limits for Leachable Substances.” ISO 10993-17: 2002; International Council for Harmonisation of Technical Requirements for Pharmaceuticals for Human Use (ICH). 2018. “ICH Harmonised Guideline: Impurities: Guideline for Residual Solvents Q3C(R7) (Current Step 4 Version).”), the values were then adjusted by a series of uncertainty factors (UFs). UF1=10 to account for interindividual variation; UF2=5 for extrapolation of effects from rats to humans; UF3=10 to account for extrapolation from an oral exposure study to systemic exposure risk associated with an implanted device; UF4=5 to account for extrapolation of results from a 90-day toxicity study in rodents to lifetime exposure associated with a permanent implant; and UF5=10 to account for extrapolation of a lowest-observed-adverse-effect level (LOAEL) to a NOAEL, if needed.

[2] = cited from earlier work

| SMILES | ALfemale (allowable limit) [1] | ALmale (allowable limit) [1] | half-life temperature ([2]; for 1 minute) [°C] | half-life temperature ([2]; for 1 hour) [°C] | half-life temperature ([2]; for 10 hours) [°C] |
| --- | --- | --- | --- | --- | --- |
| C=C(CC(C)(C)c1ccccc1)c1ccccc1 [2,4-Diphenyl-4-methyl-1-pentene] | 232 µg/day | 280 µg/day | – | – | – |
| CC(=O)c1ccccc1 [Acetophenone] | 9,810 μg/day | 11,800 μg/day | – | – | – |
| CC(C)(O)c1ccccc1 [Cumyl alcohol] | 1,800 μg/day | 1,800 μg/day | – | – | – |
| CC(C)(OOC(C)(C)c1ccccc1)c1ccccc1 [Dicumyl peroxide] | 1,860 μg/day | 2,240 μg/day | 120 | 80 | 61 |

From US11970600B2, “Di-cumyl peroxide crosslinking of UHMWPE” (priority 2021, dated 2024)
